Source: patent US20110039763A1, “TARGETED ANTIMICROBIAL MOIETIES” (C3 JIAN, INC., priority 2009, published 2011)

Legend:
[1] = tested on: S. mutans UA140 biofilms; experiment: Photodynamic antimicrobial assay, single-species biofilm; assay type: cell-based, Streptococcus mutans; details: 24 h S. mutans biofilm; 5 μM, no light
Description: To evaluate C16-RB against monoculture biofilms, S. mutans UA140 was grown overnight in TH prior to inoculation for biofilm formation. For biofilms, 1:5000 dilution of overnight culture was made into TH with 1% sucrose in 2 mL centrifuge tubes (200 μL volume) and grown 24 h under anaerobic conditions. After incubation, biofilms were treated for 5 min with 5 or 25 μM C16-RB or 5 μM RB in 1×PBS, or PBS alone, followed by removal of supernatant and exposure to 5 min blue light (emission 400-550 nm, power 400 mW/cm^2) from an Astralis 7 (Ivoclar Vivodent, Austria) handheld LED commonly used as a dental curing light. The light source was suspended 4 cm from the tube bottom (even with the mouth of the tube). A duplicate set of samples were left covered to serve as dark controls. After treatment, biofilms were mechanically disrupted and plated to determine cfu/mL.
After synthesis, the basic photosensitization potential of C16-RB was assessed by challenging mature single-species S. mutans biofilms (grown 24 h) with C16-RB or unmodified RB, followed by blue emission from a dental curing light.

[2] = tested on: mixed biofilms of S. oralis, S. gordonii, S. mitis, S. sanguinis, S. salivarius, and S. mutans JM11; experiment: Photodynamic antimicrobial assay, multispecies biofilm; assay type: cell-based
Description: To gauge C16-RB selectivity for S. mutans, similar assays were conducted against multispecies biofilms. Mixed biofilms were seeded by diluting (1:5000) a mixture of equal parts S. oralis, S. gordonii, S. mitis, S. sanguinis, S. salivarius, and S. mutans JM11 (made from overnight cultures) into TH with 1% sucrose, 1% glucose, and 1% mannose. Biofilms were incubated and treated as described above with the addition of vitamin C or potassium gluconate. After the addition of agent and 5 min incubation, biofilms were washed 1× with 1×PBS prior to light exposure. After PDT and biofilm disruption, survivors were plated on TH, and TH supplemented with 800 μg/mL spectinomycin, which allowed for quantitation of surviving total oral streptococci and surviving S. mutans, respectively.
C16-RB was next evaluated for selectivity in mixed cultures containing S. mutans and non-cariogenic oral streptococci that compete for the same niche on the tooth surface. We utilized mixed biofilms of S. mutans transformed with spectinomycin resistance (strain JM11, Merritt, et al., 2005), plus S. oralis, S. gordonii, S. mitis, S. sanguinis, and S. salivarius. The mixed cultures were grown 24 and then treated with RB or C16-RB as indicated, plus potassium gluconate to minimize killing of untargeted bacteria by reducing the superoxide-producing activity of the free C16-RB not bound to S. mutans. […]

[3] = tested on: BHK-21 (ATCC CRL-10) fibroblasts; experiment: Cytotoxicity (Promega CellTiterGlo assay); assay type: cell-based, hamster
Description: Streptococcus oralis ATCC 10557, Streptococcus gordonii (Challis), Streptococcus sanguinis (NY101), Streptococcus mitis ATCC 903, Streptococcus salivarius ATCC 13419 and S. mutans wild-type UA140 and JM11 (spectinomycin-resistant) strains were grown in Todd-Hewitt (TH) broth 37° C. in an anaerobic atmosphere of 80% N2, 10% CO2, and 10% H2. BHK-21 (ATCC CRL-10) fibroblasts were propagated in DMEM with 10% FBS, 1 mM sodium pyruvate, 100 units/mL penicillin G, and 100 μg/mL streptomycin at 37° C. with 5% CO2. Cells were detached with 0.25% trypsin and subcultured as recommended by the supplier.
The effect of RB and C16-RB on human fibroblasts was ascertained by utilizing the Promega CellTiterGlo assay, as described by the manufacturer. Briefly, fibroblasts were grown to confluence, detached, and seeded to 5,000 cells per well in a 96-well opaque walled, clear bottom 96-well plate (Nunc International). For long-term dark toxicity, cells were allowed to attach to for 18 h before the culture medium was replaced with medium plus serially-diluted RB or C16-RB (200 μM to 390 nM) or medium alone. After 18-24 h, equal volume Cell Titer Glo reagent was added to each well and mixed. Luciferace activity was then quantified to measure cell viability (Varian Fluorometer in Biolumenescence mode). To measure cytotoxicity after RB or C16-RB light exposure, cells were seeded at ˜10,000 cells per well and allowed to attach for 4 h. Cell growth medium was then replaced with RB or C16-RB containing medium, prior to exposure (a single well at a time) with blue light (400 mW/cm^2) suspended ˜3 cm from the well bottom. After exposure, cultures were disrupted with Cell Titer Glo and luciferase activity quantitated as above.

[4] = tested on: MRSA; experiment: MIC test / antimicrobial activity, MRSA; assay type: cell-based, Methicillin-resistant Staphylococcus aureus
Description: (§1) The active AMPs, STAMPs and the like can be identified and/or validated using an in vitro screening assay.
(§2) It will be appreciated that other assays as are well known in the art or that will become apparent to those having skill in the art upon review of this disclosure may also be used to identify active AMPs. Such assays include, for example, the assay described in Lehrer et al. (1988) J. Immunol.
(§3) Peptides were evaluated for basic antimicrobial activity by broth microdilution, as described previously (Eckert et al. (2006) Antimicrob Agents Chemother., 50: 3651-3657; Eckert et al. (2006) Antimicrob Agents Chemother., 50: 1480-1488). Briefly, ˜1×10^5 cfu/mL bacteria were diluted in TH (S. mutans), or Mueller-Hinton (MH) broth (all other organisms) and distributed to 96-well plates. Serially-diluted (2-fold) peptides were then added and the plates incubated at 37° C. for 18-24 h. […] All experiments were conducted 10 times.

[5] = tested on: T. rubrum; experiment: MIC test / antimicrobial activity, T. rubrum; assay type: cell-based, Trichophyton rubrum
Description: as §1, §2, §3

[6] = tested on: A. niger; experiment: MIC test / antimicrobial activity, A. niger; assay type: cell-based, Aspergillus niger
Description: as §1, §2, §3

[7] = tested on: B. subtilis; experiment: MIC test / antimicrobial activity, B. subtilis; assay type: cell-based, Bacillus subtilis; details: B. subtilis
Summary of the method: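 Broth microdilution with ~1×10^5 cfu/mL organisms in TH broth (S. mutans) or Mueller-Hinton broth (other organisms). Peptides added as 2-fold serial dilutions, then incubated 18-24 h at 37° C. Experiments run 10 times.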

[8] = tested on: S. epidermidis; experiment: MIC test (broth microdilution) / antimicrobial activity, S. epidermidis; assay type: cell-based, Staphylococcus epidermidis; details: S. epidermidis
Description: as §1, §2, §3

[9] = tested on: C. albicans; experiment: MIC test / antimicrobial activity, C. albicans; assay type: cell-based, Candida albicans
Description: as §1, §2, §3

[10] = tested on: E. faecalis; experiment: MIC test / antimicrobial activity, E. faecalis; assay type: cell-based, Enterococcus faecalis
Description: as §1, §2, §3

[11] = tested on: microorganisms; experiment: Peptide activities: targeting/binding, antimicrobial, growth or phenotype altering (Tables 7, 8); assay type: cell-based; details: peptides having multiple activities
[12] = tested on: microorganisms; experiment: Morphology, biofilm and growth disrupting peptides (Table 5); assay type: cell-based; design: key: A: Peptide aggregates; B: Less hyphal formation; Clumps; Diffuse clumps and small polyps; F: Diffuse growth; H: Thin; I: Growth inhibition; Microcolony formation; Rippled; Small polyps; Thick; W: Halo formation on top, microlonies on bottom
Text: In certain embodiments peptides that induce alterations in phenotype or other biological activities can also be used as antimicrobial effector moieties.

## O=C1OC2(c3cc(I)c(O)c(I)c3Oc3c2cc(I)c(O)c3I)c2c(Cl)c(Cl)c(Cl)c(Cl)c21 [RB, rose bengal]
[1]
  decrease in cfu/mL, dark control: appreciable decreases in cfu/mL were not observed
[2]; blue light illumination, FIG. 22
  selectivity of photodynamic antimicrobial activity: strong indiscriminant photodynamic antimicrobial effects
[2]; potassium gluconate, blue light
  ratio of surviving S. mutans:non-cariogenic streptococci cfu: ~1
[3]; 5 min w/blue light
  IC50: 40 µM
  IC50 (μM) BHK: light-dependent toxicity
[3]; 24 h dark
  IC50: 90 µM

## MRFGSLALVAYDSAIKHSWPRPSSVRRLRM [PF-672]
[4]
  Organism MIC (μM): MRSA, 1.56 μM
[5]
  Organism MIC (μM): T. rubrum, 0.78 μM
[6]
  Organism MIC (μM): A. niger, 3 μM
[7]
  Organism MIC (μM): B. subtilis, 0.78 μM
[8]
  Organism MIC (μM): S. epidermidis, 0.39 μM
[9]
  Organism MIC (μM): C. albicans, 1.56 μM
[10]
  Organism MIC (μM): E. faecalis, 3.13 μM
[11]
  Activities: G B M
[12]; B. subtilis
  Organism, effect: B. subtilis (I)
[12]; C. albicans
  Organism, effect: C. albicans (I)
[12]; C. jeikeium
  Organism, effect: C. jeikeium (R)
[12]; E. faecalis
  Organism, effect: E. faecalis (I)
[12]; MRSA
  Organism, effect: MRSA (I)
[12]; S. epidermidis
  Organism, effect: S. epidermidis (I)
[12]; S. pneumoniae
  Organism, effect: S. pneumoniae (I)
